Here are results for nine compounds from ChEMBL document CHEMBL5550196, “Design, synthesis, and anticancer assessment of structural analogues of (E)-1-((3,4,5-trimethoxybenzylidene)amino)-4-(3,4,5-trimethoxyphenyl)imidazo[1,2-a]quinoxaline-2-carbonitrile (6b), an imidazo[1,2-a]quinoxaline-based non-covalent EGFR inhibitor” (RSC Med Chem, 2024).

The structures appear in SMILES notation. Active and inactive are the calls of the source. The calls are words filed in the database; no cut-off is given here.

One test relates to MDA-MB-231. Put plainly: cells. The following applies: Homo sapiens, MDA-MB-231, 48 h.
In test [1] the test system is A549. Nature of the test: cells. The conditions noted are these: Homo sapiens, A549, 48 h.
A further test relates to MCF7. Nature of the test: cells. The conditions noted are these: Homo sapiens, MCF7, 48 h.
Test [2] has as its system A549. Put plainly: Downregulation of KRAS gene expression in human A549 cells by SYBR green dye based qPCR analysis. It is filed as functional, cell-based. For orientation: Real-time PCR tracks product formation cycle by cycle.
For test [3], the system named is A549. Nature of the test: Induction of mitochondrial membrane hyperpolarization in human A549 cells at 1 to 5 uM by JC-1 staining based fluorescence microplate reader assay. It is filed as functional, cell-based. The following applies: dose 1-5 µM.
In test [4] the test system is A549. Nature of the test: Inhibition of oxidative stress in human A549 cells assessed as reduction in ROS production at 1 to 5 uM by DCFH-DA staining based microplate reader analysis. Type of test: functional, cell-based. The conditions noted are these: dose 1-5 µM.
Test [5] relates to A549. Nature of the test: Downregulation of EGFR gene expression in human A549 cells by SYBR green dye based qPCR analysis. It is filed as functional, cell-based.
Test [6] concerns A549. Put plainly: Downregulation of MAP2K gene expression in human A549 cells by SYBR green dye based qPCR analysis. It is filed as functional, cell-based.
The target in test [7] is T1, Epidermal growth factor receptor (Homo sapiens, UniProt P00533). The following applies: dose 200.0 nM, time 2.0 hrs.
T1 sequence (P00533 whole entry): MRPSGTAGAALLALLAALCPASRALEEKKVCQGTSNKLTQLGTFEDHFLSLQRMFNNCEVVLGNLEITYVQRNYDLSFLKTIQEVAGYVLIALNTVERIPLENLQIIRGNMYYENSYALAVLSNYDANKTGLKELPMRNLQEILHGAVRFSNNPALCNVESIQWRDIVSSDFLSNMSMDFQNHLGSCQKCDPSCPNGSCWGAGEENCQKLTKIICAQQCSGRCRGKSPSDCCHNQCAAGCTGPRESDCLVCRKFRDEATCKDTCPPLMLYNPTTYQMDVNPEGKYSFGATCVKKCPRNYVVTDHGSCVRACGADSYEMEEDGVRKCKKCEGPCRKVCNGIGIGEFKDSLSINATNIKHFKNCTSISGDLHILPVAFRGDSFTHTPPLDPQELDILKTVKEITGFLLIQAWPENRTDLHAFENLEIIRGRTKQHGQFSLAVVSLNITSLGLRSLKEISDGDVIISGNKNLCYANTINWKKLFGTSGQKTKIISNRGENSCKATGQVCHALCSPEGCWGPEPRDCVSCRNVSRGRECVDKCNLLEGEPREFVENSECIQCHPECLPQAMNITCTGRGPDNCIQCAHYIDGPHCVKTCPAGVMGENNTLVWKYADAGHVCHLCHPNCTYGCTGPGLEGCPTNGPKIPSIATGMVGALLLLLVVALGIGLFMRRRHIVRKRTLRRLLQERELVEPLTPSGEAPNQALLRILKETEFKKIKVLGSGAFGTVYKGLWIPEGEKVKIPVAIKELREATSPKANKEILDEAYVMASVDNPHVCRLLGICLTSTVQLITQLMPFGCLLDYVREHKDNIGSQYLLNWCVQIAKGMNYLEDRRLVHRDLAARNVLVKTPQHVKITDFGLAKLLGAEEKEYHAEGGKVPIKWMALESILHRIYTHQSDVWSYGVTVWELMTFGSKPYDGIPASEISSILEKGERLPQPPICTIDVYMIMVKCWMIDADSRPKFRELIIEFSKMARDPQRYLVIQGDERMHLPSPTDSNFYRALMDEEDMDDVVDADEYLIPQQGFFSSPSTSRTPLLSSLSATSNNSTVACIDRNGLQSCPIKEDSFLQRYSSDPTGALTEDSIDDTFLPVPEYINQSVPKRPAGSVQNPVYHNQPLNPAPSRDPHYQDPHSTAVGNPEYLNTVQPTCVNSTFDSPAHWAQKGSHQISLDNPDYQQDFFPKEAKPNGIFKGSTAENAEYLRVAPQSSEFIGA
Test [8] has as its target T1, Epidermal growth factor receptor. Put plainly: Inhibition of EGFR (unknown origin) mediated phosphorylation incubated for 2 hrs in presence of ATP by Z-LYTE assay.

One may read the IC50 as the midpoint of a concentration-inhibition curve. For orientation: inhibition means the change of the read-out against control, counted positive when it falls.

Turning to `COc1cc(-c2nc3ccccc3n3c(/N=C/c4cc(F)ccc4[N+](=O)[O-])c(C#N)nc23)cc(OC)c1OC`, the results for the IC50 with MDA-MB-231, in the test with A549 [1] and in the test with MCF7 were 11.4 µM, 3.25 µM and 9.99 µM, respectively.
Regarding `COc1cc(-c2nc3ccccc3n3c(/N=C/c4ccsc4)c(C#N)nc23)cc(OC)c1OC`, the result with A549 [2], in the test with A549 [3], with A549 [5] and in the test with A549 [6] was Active. The inhibition entry in the test on A549 [4] is “Active”. Moreover, the IC50 with MDA-MB-231 is > 25 µM; with A549 [1], 1.34 µM; in the test on MCF7, 14.3 µM.
Take `COc1cc(-c2nc3ccccc3n3c(/N=C/c4cccnc4)c(C#N)nc23)cc(OC)c1OC`: the IC50 stood at 8.66 µM in the test with MDA-MB-231, 4.27 µM in the test on A549 [1] and 23.9 µM with MCF7.
The like results for `COc1cc(-c2nc3ccccc3n3c(/N=C/c4c[nH]c5ccccc45)c(C#N)nc23)cc(OC)c1OC` were, in that order, > 25 µM, > 25 µM and 8.99 µM.
In the case of `C#Cc1cccc(Nc2ncnc3cc(OCCOC)c(OCCOC)cc23)c1`, the result in the test with A549 [2], in the test with A549 [5] and in the test on A549 [6] was Active.
Turning to `COc1cc(-c2nc3ccccc3n3c(/N=C/c4ccncc4)c(C#N)nc23)cc(OC)c1OC`, the IC50 in the test on MDA-MB-231 worked out at 8.88 µM; in the test with A549 [1], 16.5 µM; in the test on MCF7, 13.1 µM.
Consider `COc1cc(-c2nc3ccccc3n3c(/N=C/c4ccc(Cl)cc4)c(C#N)nc23)cc(OC)c1OC`, for which the IC50 in the test with MDA-MB-231 came out at 5.94 µM; with A549 [1], 4.43 µM; in the test with MCF7, 3.82 µM.
Turning to `COc1cc(-c2nc3ccccc3n3c(/N=C/c4ccc(N(C)C)cc4)c(C#N)nc23)cc(OC)c1OC`, the IC50 in the test with MDA-MB-231 came to 6.41 µM; in the test on A549 [1], 13.2 µM; in the test with MCF7, 24 µM.
Take `COc1cccc(/C=N/c2c(C#N)nc3c(-c4cc(OC)c(OC)c(OC)c4)nc4ccccc4n23)c1`: the outcome with A549 [2], with A549 [3], with A549 [5] and in the test on A549 [6] was Active. Moreover, in the test on A549 [4], the inhibition entry is “Active”. In addition, the IC50 with MDA-MB-231 was 5.77 µM; with A549 [1], 3.53 µM; in the test on MCF7, 13.6 µM; in test [8] it was 0.0759 µM. In addition, in test [7], the inhibition is > 50%.
